The test system of assay [1] is E. coli CSH(RE45). As to the kind of experiment: microbe, parasite or virus in culture. It is filed as cell-based. To be noted: Escherichia coli, 16 h, read-out: Minimum Inhibitory Concentration (MIC), *E. coli CSH(RE45), lactamase-producing strain; 10^6 CFU/ml. The procedure, abridged: (§1)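 Agar dilution: MH agar + graded drug conc.; inoculum 10^6 CFU/ml (overnight MH broth culture, one loopful); 37° C., 16 h; MIC, μg/ml.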

Assay [2] has as its system E. coli CSH2 (RK1). Briefly: microbe, parasite or virus in culture. It is filed as cell-based. To be noted: Escherichia coli, 16 h, read-out: Minimum Inhibitory Concentration (MIC), *E. coli CSH2 (RK1), lactamase-producing strain; 10^6 CFU/ml. The procedure, abridged:
as §1

The test system of assay [3] is E. cloacae 963. As to the kind of experiment: in vitro antibacterial activity, agar plate dilution method (MIC). In kind it is cell-based. To be noted: Enterobacter cloacae, 16 h; E. cloacae 963; 10^6 CFU/ml; read-out: Minimum Inhibitory Concentration (MIC). The procedure, abridged:
as §1

Assay [4] has as its system E. cloacae Nek 39. The description is as above. In kind it is cell-based. To be noted: Enterobacter cloacae, NEK39, 16 h, 10^6 CFU/ml. The procedure, abridged:
as §1

Assay [5] concerns E. coli GN5482. The description is as above. It is filed as cell-based. To be noted: Escherichia coli. The procedure, abridged:
as §1

The test system of assay [6] is E. coli NIHJ JC2. Described as above. It is filed as cell-based. To be noted: Escherichia coli. The procedure, abridged:
as §1

For assay [7], the system named is K. oxytoca GN10650. The assay is described as above. It is filed as cell-based. To be noted: Klebsiella oxytoca, 10^6 CFU/ml. The procedure, abridged:
as §1

Assay [8] has as its system K. pneumoniae No. 42. The description is as above. It is filed as cell-based. To be noted: Klebsiella pneumoniae, 16 h; *K. pneumoniae No. 42, lactamase-producing strain; 10^6 CFU/ml; read-out: Minimum Inhibitory Concentration (MIC). The procedure, abridged:
as §1

Assay [9] deals with K. pneumoniae PCI-602. The description is as above. In kind it is cell-based. To be noted: Klebsiella pneumoniae, PCI602, 16 h, 10^6 CFU/ml. The procedure, abridged: as §1
Assay [10] relates to M. morganii GN5407. The description is as above. It is filed as cell-based. To be noted: Morganella morganii, 10^6 CFU/ml. The procedure, abridged:
as §1

Assay [11] deals with P. vulgaris HX-19. The description is as above. In kind it is cell-based. To be noted: Proteus vulgaris, HX19, 16 h, P. vulgaris HX-19; 10^6 CFU/ml; read-out: Minimum Inhibitory Concentration (MIC). The procedure, abridged:
as §1

Assay [12] deals with P. vulgaris No. 33. Described as above. In kind it is cell-based. To be noted: Proteus vulgaris, 10^6 CFU/ml. The procedure, abridged: as §1
In assay [13] the test system is S. aureus 209P NIHJ-JC1. The description is as above. It is filed as cell-based. To be noted: Staphylococcus aureus, 16 h. The procedure, abridged:
as §1

The subject of assay [14] is S. marcescens IAM 1184. Described as above. It is filed as cell-based. To be noted: Serratia marcescens, IAM1184, 16 h, read-out: Minimum Inhibitory Concentration (MIC). The procedure, abridged: as §1
The test system of assay [15] is S. marcescens No. 16-2. Described as above. To be noted: Serratia marcescens, NO.162, 16 h. It is filed as cell-based. The procedure, abridged: as §1
Assay [16] deals with Ps. aeruginosa AK 109. The assay is described as above. In kind it is cell-based, Pseudomonas aeruginosa. To be noted: Pseudomonas aeruginosa, AK109, 16 h, Ps. aeruginosa AK 109; 10^6 CFU/ml; read-out: Minimum Inhibitory Concentration (MIC). The procedure, abridged: as §1
For assay [17], the system named is Ps. aeruginosa AKR17. Described as above. To be noted: Pseudomonas aeruginosa, 16 h; Ps. aeruginosa AKR17; 10^6 CFU/ml; read-out: Minimum Inhibitory Concentration (MIC). In kind it is cell-based, Pseudomonas aeruginosa. The procedure, abridged: as §1
Assay [18] has as its system Ps. aeruginosa IF03445. Described as above. To be noted: Pseudomonas aeruginosa, 16 h; Ps. aeruginosa IF03445; 10^6 CFU/ml; read-out: Minimum Inhibitory Concentration (MIC). It is filed as cell-based, Pseudomonas aeruginosa. The procedure, abridged:
as §1

Assay [19] relates to Ps. cepacia 23. The assay is described as above. In kind it is cell-based, Pseudomonas cepacia. To be noted: read-out: Minimum Inhibitory Concentration (MIC). The procedure, abridged: as §1
Assay [20] relates to A. calcoaceticus No. 4. Described as above. In kind it is cell-based, Acinetobacter calcoaceticus. To be noted: Acinetobacter calcoaceticus, NO.4, 16 h, A. calcoaceticus No. 4; 10^6 CFU/ml; read-out: Minimum Inhibitory Concentration (MIC). The procedure, abridged:
as §1

Where [21] appears, read: *E. cloacae Nek 39, lactamase-producing strain, read-out: Minimum Inhibitory Concentration (MIC).
Where [22] appears, read: 16 h, *E. coli GN5482, lactamase-producing strain, 10^6 CFU/ml, read-out: Minimum Inhibitory Concentration (MIC).
[23] abbreviates: NIHJJC2, E. coli NIHJ JC2, 10^6 CFU/ml, 37° C., 16 hours, read-out: Minimum Inhibitory Concentration (MIC).
The mark [24] stands for this setting: read-out: Minimum Inhibitory Concentration (MIC), K. pneumoniae PCI-602.
Where [25] appears, read: 16 h, *M. morganii GN5407, lactamase-producing strain, read-out: Minimum Inhibitory Concentration (MIC).
The mark [26] stands for this setting: 16 h, *P. vulgaris No. 33, lactamase-producing strain, read-out: Minimum Inhibitory Concentration (MIC).
Where [27] appears, read: read-out: Minimum Inhibitory Concentration (MIC).
Setting [28] is: S. marcescens IAM 1184, 10^6 CFU/ml.
Setting [29] is: NIHJJC2, 16 h, read-out: Minimum Inhibitory Concentration (MIC), E. coli NIHJ JC2, 10^6 CFU/ml, 37° C.
Setting [30] is: 16 h, *K. oxytoca GN10650, lactamase-producing strain, read-out: Minimum Inhibitory Concentration (MIC).
Setting [31] is: K. pneumoniae PCI-602, read-out: Minimum Inhibitory Concentration (MIC).
Where [32] appears, read: *S. marcescens No. 16-2, lactamase-producing strain, 10^6 CFU/ml, read-out: Minimum Inhibitory Concentration (MIC).

Converted amounts (≈) assume the structure as drawn. Structures can show the parent of a compound that is named as a salt. Where two headings read alike, the source gives them in different places.

As to `CO/N=C(\C(=O)N[C@@H]1C(=O)N2C(C(=O)O)=C(CSc3nnc(-c4ccccc4)o3)CS[C@H]12)c1csc(N)n1` [compound 1, 7β-[2-(2-aminothiazol-4-yl)-2-methoxyiminoacetamido]-3-(5-phenyl-1,3,4-oxadiazol-2-yl)thiomethyl-3-cephem-4-carboxylic acid trifluoroacetate, reference compound], the MIC in [1] stood at 0.39 µg/mL; in assay [2], 0.39 µg/mL; in assay [3], 1.56 µg/mL; in assay [4] (setting [21]), 3.12 µg/mL; in [5] (setting [22]), 0.78 µg/mL; in assay [6] (setting [23]) it was 0.78 µg/mL. Besides, the MIC in [7] (GN10650, 16 h, read-out: Minimum Inhibitory Concentration (MIC), *K. oxytoca GN10650, lactamase-producing strain) is 6.25 µg/mL; in assay [8] it was 1.56 µg/mL; in assay [9] (setting [24]) it was 0.0125 µg/mL; in [10] (setting [25]), 0.78 µg/mL; in assay [11], less than 6 ng/mL; in [12] (setting [26]), 0.78 µg/mL. Further, the MIC in assay [13] (setting [27]) was 0.39 µg/mL; in [14] (setting [28]), 1.56 µg/mL; in assay [15] (read-out: Minimum Inhibitory Concentration (MIC), *S. marcescens No. 16-2, lactamase-producing strain, 10^6 CFU/ml) it was 6.25 µg/mL; in [16], 50 µg/mL; in assay [17], greater than 100 µg/mL; in assay [18] it was greater than 100 µg/mL. Also, the MIC in assay [19] (Burkholderia cepacia, 23, 16 h) was 12.5 µg/mL; in assay [20] it was 100 µg/mL.
As for `CO/N=C(\C(=O)N[C@@H]1C(=O)N2C(C(=O)O)=C(CSc3nnc(-c4ccc(O)cc4)o3)CS[C@H]12)c1csc(N)n1` [compound 2, reference compound], the MIC in assay [1] was 0.39 µg/mL (≈ 0.661 µM); in [2], 0.78 µg/mL (≈ 1.32 µM); in assay [3] it was 1.56 µg/mL (≈ 2.65 µM); in [4] (read-out: Minimum Inhibitory Concentration (MIC), *E. cloacae Nek 39, lactamase-producing strain), 6.25 µg/mL (≈ 10.6 µM); in assay [5] (GN5482, 16 h, read-out: Minimum Inhibitory Concentration (MIC), *E. coli GN5482, lactamase-producing strain, 10^6 CFU/ml), 0.78 µg/mL (≈ 1.32 µM); in assay [6] (setting [29]), 0.78 µg/mL (≈ 1.32 µM). For the same molecule, the MIC in assay [7] (setting [30]) is 25 µg/mL (≈ 42.4 µM); in [8], 1.56 µg/mL (≈ 2.65 µM); in [9] (setting [31]), 0.0125 µg/mL (≈ 0.0212 µM); in assay [10] (GN5407, 16 h, read-out: Minimum Inhibitory Concentration (MIC), *M. morganii GN5407, lactamase-producing strain) it was 0.78 µg/mL (≈ 1.32 µM); in assay [11] it was less than 6 ng/mL; in [12] (NO.33, 16 h, read-out: Minimum Inhibitory Concentration (MIC), *P. vulgaris No. 33, lactamase-producing strain), 0.78 µg/mL (≈ 1.32 µM). Besides, the MIC was 0.78 µg/mL (≈ 1.32 µM) in [13] (read-out: Minimum Inhibitory Concentration (MIC), S. aureus 209P NIHJ-JC1, 10^6 CFU/ml, 37° C., 16 hours); 0.78 µg/mL (≈ 1.32 µM) in assay [14]; 25 µg/mL (≈ 42.4 µM) in [15] (setting [32]); 50 µg/mL (≈ 84.8 µM) in assay [16]; greater than 100 µg/mL in assay [17]; 100 µg/mL (≈ 170 µM) in assay [18]. Further, the MIC was 12.5 µg/mL (≈ 21.2 µM) in [19] (Burkholderia cepacia, 23, 16 h) and 50 µg/mL (≈ 84.8 µM) in [20].
Regarding `CO/N=C(\C(=O)N[C@@H]1C(=O)N2C(C(=O)O)=C(CSc3nnc(-c4ccccc4)s3)CS[C@H]12)c1csc(N)n1` [compound 5, 7β-[2-(2-aminothiazol-4-yl)-2-methoxyiminoacetamido]-3-(5-phenyl-1,3,4-thiadiazol-2-yl) thiomethyl-3-cephem-4-carboxylic acid trifluoroacetate, reference compound], the MIC in assay [1] worked out at 0.2 µg/mL; in [2], 0.2 µg/mL; in assay [3], 0.78 µg/mL; in [4] (setting [21]) it was 3.12 µg/mL; in assay [5] (setting [22]), 0.39 µg/mL; in assay [6] (setting [23]), 0.39 µg/mL. The MIC in [7] (setting [30]) amounted to 6.25 µg/mL; in assay [8], 0.78 µg/mL; in assay [9] (setting [31]) it was 0.0125 µg/mL; in [10] (setting [25]), 0.78 µg/mL; in assay [11], 12.5 ng/mL; in [12] (setting [26]), 0.39 µg/mL. Further, the MIC in assay [13] (S. aureus 209P NIHJ-JC1, 10^6 CFU/ml, 37° C., 16 hours, read-out: Minimum Inhibitory Concentration (MIC)) is 0.39 µg/mL; in assay [14] (setting [28]), 0.78 µg/mL; in assay [15] (setting [32]), 3.12 µg/mL; in assay [16], 50 µg/mL; in assay [17] it was greater than 100 µg/mL; in assay [18], 50 µg/mL. Besides, the MIC in assay [19] (Burkholderia cepacia, 16 h, Ps. cepacia 23, 10^6 CFU/ml) is 3.12 µg/mL; in [20], 3.12 µg/mL.
In the case of `CC(C)(O/N=C(\C(=O)N[C@@H]1C(=O)N2C(C(=O)O)=C(CSc3nnc(-c4ccccc4)s3)CS[C@H]12)c1csc(N)n1)C(=O)O` [compound 6, disodium 7β-[2-(2-aminothiazol-4-yl)-(1-carboxylate-1-methylethoxyimino)acetamido]-3-(5-phenyl-1,3,4-thiadiazol-2-yl) thiomethyl-3-cephem-4carboxylate, reference compound], the MIC came out at 3.12 µg/mL in [1]; 3.12 µg/mL in [2]; 6.25 µg/mL in [3]; 50 µg/mL in [4] (setting [21]); 3.12 µg/mL in assay [5] (GN5482, 16 h, read-out: Minimum Inhibitory Concentration (MIC)); 3.12 µg/mL in [6] (setting [29]). The MIC in assay [7] (setting [30]) is 6.25 µg/mL; in assay [8], 6.25 µg/mL; in [9] (setting [24]) it was 0.1 µg/mL; in assay [10] (setting [25]) it was 6.25 µg/mL; in assay [11] it was less than 6 ng/mL; in assay [12] (setting [26]) it was 0.39 µg/mL. Also, the MIC in assay [13] (setting [27]) is 3.12 µg/mL; in assay [14] (setting [28]) it was 1.56 µg/mL; in [15] (setting [27]), 12.5 µg/mL; in assay [16], 100 µg/mL; in assay [17], greater than 100 µg/mL; in [18], 50 µg/mL. Further, the MIC is 12.5 µg/mL in [19] (Burkholderia cepacia, 23, 16 h) and 6.25 µg/mL in [20].

The record behind these values is patent US5061794A, “Cephalosporin derivatives, and antibacterial agents” (priority 1986, dated 1991).
